Common to all, as to assay type: cell-based
Assay [1] concerns the target Somatostatin receptor type 1 (Homo sapiens, UniProt P30872). Put plainly: Displacement of [125I]-[LTT]-SS28 from human SST1 receptor expressed in CHO cells after 2 hrs by autoradiographic analysis. For orientation: Displacement assays read how much labelled ligand stays bound in the presence of the test substance.
For assay [2], the target named is Somatostatin receptor type 3 (Homo sapiens, UniProt P32745). Put plainly: Displacement of [125I]-[LTT]-SS28 from human SST3 receptor expressed in Chinese hamster CCL-39 cells after 2 hrs by autoradiographic analysis.
Chain of Somatostatin receptor type 3 (P32745 whole entry): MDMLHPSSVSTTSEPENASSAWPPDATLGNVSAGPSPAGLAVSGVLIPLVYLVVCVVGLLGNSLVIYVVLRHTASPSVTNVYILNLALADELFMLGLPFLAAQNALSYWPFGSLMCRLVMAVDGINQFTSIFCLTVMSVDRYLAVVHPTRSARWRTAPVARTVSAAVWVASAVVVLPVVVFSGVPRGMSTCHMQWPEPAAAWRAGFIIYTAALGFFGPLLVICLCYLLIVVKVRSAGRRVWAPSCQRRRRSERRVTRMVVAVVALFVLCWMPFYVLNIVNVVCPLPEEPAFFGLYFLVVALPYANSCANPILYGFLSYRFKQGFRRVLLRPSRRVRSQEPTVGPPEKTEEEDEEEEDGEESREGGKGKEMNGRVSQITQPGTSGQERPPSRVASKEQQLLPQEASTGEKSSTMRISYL
The target in assay [3] is Somatostatin receptor type 4 (Homo sapiens, UniProt P31391). The experiment in a line: Displacement of [125I]-[LTT]-SS28 from human SST4 receptor expressed in Chinese hamster CCL-39 cells after 2 hrs by autoradiographic analysis.
Chain of Somatostatin receptor type 4 (P31391 whole entry): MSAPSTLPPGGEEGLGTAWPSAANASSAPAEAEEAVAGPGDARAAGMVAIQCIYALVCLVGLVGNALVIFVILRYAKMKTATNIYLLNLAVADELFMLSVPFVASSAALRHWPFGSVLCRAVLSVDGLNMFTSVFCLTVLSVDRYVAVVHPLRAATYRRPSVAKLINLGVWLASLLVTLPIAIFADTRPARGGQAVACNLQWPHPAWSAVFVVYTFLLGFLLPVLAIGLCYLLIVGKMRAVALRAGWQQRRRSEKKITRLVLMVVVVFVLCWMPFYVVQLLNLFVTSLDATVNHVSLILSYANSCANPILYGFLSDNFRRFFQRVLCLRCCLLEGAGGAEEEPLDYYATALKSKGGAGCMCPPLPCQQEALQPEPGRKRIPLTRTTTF
The target of assay [4] is T1, Somatostatin receptor type 2 (Homo sapiens, UniProt P30874). The experiment in a line: Displacement of [125I]-[LTT]-SS28 from human SST2 receptor expressed in Chinese hamster CCL-39 cells after 2 hrs by autoradiographic analysis.
T1 sequence (P30874 whole entry): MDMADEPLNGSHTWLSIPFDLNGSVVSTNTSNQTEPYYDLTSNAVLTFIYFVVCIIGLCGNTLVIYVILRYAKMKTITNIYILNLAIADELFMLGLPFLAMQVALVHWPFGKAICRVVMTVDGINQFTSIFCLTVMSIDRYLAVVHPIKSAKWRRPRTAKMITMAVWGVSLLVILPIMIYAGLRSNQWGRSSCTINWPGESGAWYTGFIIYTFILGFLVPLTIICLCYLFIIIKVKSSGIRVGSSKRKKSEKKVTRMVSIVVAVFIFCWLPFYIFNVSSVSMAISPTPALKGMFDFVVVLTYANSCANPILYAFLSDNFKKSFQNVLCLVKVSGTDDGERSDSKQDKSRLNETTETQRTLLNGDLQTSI
Assay [5] addresses T1, Somatostatin receptor type 2. Put plainly: Agonist activity at T7-epitope-tagged human SST2A receptor expressed in HEK293 cells assessed as stimulation of receptor internalization at 1 uM after 30 mins by immunofluorescence microscopic analysis.
For assay [6], the target named is Somatostatin receptor type 5 (Homo sapiens, UniProt P35346). Put plainly: Displacement of [125I]-[LTT]-SS28 from human SST5 receptor expressed in HEK293 cells after 2 hrs by autoradiographic analysis.
Chain of Somatostatin receptor type 5 (P35346 whole entry): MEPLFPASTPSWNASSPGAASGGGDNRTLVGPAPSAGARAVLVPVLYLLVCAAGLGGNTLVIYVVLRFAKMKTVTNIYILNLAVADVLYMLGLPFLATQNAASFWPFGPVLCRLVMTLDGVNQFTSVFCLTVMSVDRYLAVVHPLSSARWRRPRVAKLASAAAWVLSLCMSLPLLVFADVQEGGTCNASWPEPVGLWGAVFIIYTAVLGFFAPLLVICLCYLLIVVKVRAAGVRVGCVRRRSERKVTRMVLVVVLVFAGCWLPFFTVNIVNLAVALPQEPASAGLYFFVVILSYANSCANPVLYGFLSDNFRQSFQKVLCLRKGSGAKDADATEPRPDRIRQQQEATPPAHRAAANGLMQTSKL

Activity calls are given as the source filed them. The calls are words filed in the database; no cut-off is given here.

Chain of Somatostatin receptor type 1 (P30872 whole entry): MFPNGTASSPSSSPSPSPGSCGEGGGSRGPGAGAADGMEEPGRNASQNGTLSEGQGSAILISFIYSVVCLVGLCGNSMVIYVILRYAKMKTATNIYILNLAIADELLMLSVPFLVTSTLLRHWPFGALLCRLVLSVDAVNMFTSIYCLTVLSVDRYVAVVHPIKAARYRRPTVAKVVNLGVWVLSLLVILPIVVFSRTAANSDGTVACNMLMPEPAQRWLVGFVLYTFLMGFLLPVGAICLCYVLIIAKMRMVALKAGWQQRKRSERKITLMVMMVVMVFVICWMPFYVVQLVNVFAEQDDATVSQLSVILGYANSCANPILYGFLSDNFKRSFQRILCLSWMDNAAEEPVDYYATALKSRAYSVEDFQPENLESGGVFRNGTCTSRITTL

Take `CCCC[C@H](NC(=O)CNC(=O)[C@H](C)NC(=O)CN1CCN(CC(=O)O)CCN(CC(=O)O)CCN(CC(=O)O)CC1)C(=O)N[C@@H](CCCCN)C(=O)N[C@@H](CC(N)=O)C(=O)N[C@H]1CSSC[C@@H](C(=O)N[C@H](C(=O)N[C@@H](CO)C(=O)NCC(=O)O)[C@@H](C)O)NC(=O)[C@H]([C@@H](C)O)NC(=O)[C@H](CCCCN)NC(=O)[C@@H](Cc2c[nH]c3ccccc23)NC(=O)[C@H](Cc2ccccc2)NC1=O`: the IC50 in assay [1], in assay [2], in assay [3], in assay [4] and in assay [6] was above 1000 nM throughout. In addition, the outcome in assay [5] was inactive.
As for `CCCC[C@H](NC(=O)CNC(=O)[C@H](C)NC(=O)CN1CCN(CC(=O)O)CCN(CC(=O)O)CCN(CC(=O)O)CC1)C(=O)N[C@@H](CCCCN)C(=O)N[C@@H](CC(N)=O)C(=O)N[C@H]1CSSC[C@@H](C(=O)N[C@H](C(=O)N[C@@H](CO)C(=O)NCC(=O)O)[C@@H](C)O)NC(=O)[C@H]([C@@H](C)O)NC(=O)[C@H](CCCCN)NC(=O)[C@@H](Cc2c[nH]c3ccccc23)NC(=O)[C@H](Cc2ccc(O)cc2)NC1=O`, the IC50 (usually the point on the concentration scale where inhibition reaches its midpoint) in assay [1] is above 1000 nM; in assay [2], above 1000 nM; in assay [3], above 1000 nM; in assay [4] it was 946 nM; in assay [6], above 1000 nM. In addition, the result in assay [5] was inactive.
Turning to `C[C@@H](O)[C@@H]1NC(=O)[C@H](CCCCN)NC(=O)[C@@H](Cc2c[nH]c3ccccc23)NC(=O)[C@H](Cc2ccccc2)NC(=O)[C@H](Cc2ccccc2)NC(=O)[C@@H](NC(=O)CNC(=O)COCCOCCNC(=O)CN2CCN(CC(=O)O)CCN(CC(=O)O)CCN(CC(=O)O)CC2)CSSC[C@@H](C(=O)O)NC(=O)[C@H](CO)NC(=O)[C@H](Cc2ccccc2)NC1=O`, the IC50 in assay [1] was determined as 795 nM; in assay [2], 18 nM; in assay [3], 1.2 nM; in assay [4], 1 nM; in assay [6] it was 58 nM. Also, the outcome in assay [5] was Active.
Regarding `C[C@@H](O)[C@@H]1NC(=O)[C@H](CCCCN)NC(=O)[C@@H](Cc2c[nH]c3ccccc23)NC(=O)[C@H](Cc2ccccc2)NC(=O)[C@H](Cc2ccccc2)NC(=O)[C@@H](NC(=O)[C@H](CCCNC(=N)N)NC(=O)COCCOCCNC(=O)CN2CCN(CC(=O)O)CCN(CC(=O)O)CCN(CC(=O)O)CC2)CSSC[C@@H](C(=O)O)NC(=O)[C@H](CO)NC(=O)[C@H](Cc2ccccc2)NC1=O`, the IC50 in assay [1] came to 171 nM; in assay [2], 24 nM; in assay [3] it was 0.9 nM; in assay [4], 0.76 nM; in assay [6] it was 16 nM. Further, the result in assay [5] was Active.
On to `CCCC[C@H](NC(=O)CNC(=O)[C@H](C)NC(=O)CN1CCN(CC(=O)O)CCN(CC(=O)O)CCN(CC(=O)O)CC1)C(=O)N[C@@H](CCCCN)C(=O)N[C@@H]1CSSC[C@@H](C(=O)N[C@@H](CO)C(=O)NCC(=O)O)NC(=O)[C@H](Cc2ccccc2)NC(=O)[C@H]([C@@H](C)O)NC(=O)[C@H](CCCCN)NC(=O)[C@@H](Cc2c[nH]c3ccccc23)NC(=O)[C@H](Cc2ccccc2)NC(=O)[C@H](Cc2ccccc2)NC1=O`, for which the concentration for half-maximal inhibition (IC50) was 18 nM in assay [1]; 98 nM in assay [2]; 5.4 nM in assay [3]; 50 nM in assay [4]; 37 nM in assay [6]. The result in assay [5] was inactive.
Turning to `CCCC[C@H](NC(=O)CNC(=O)[C@H](C)NC(=O)CN1CCN(CC(=O)O)CCN(CC(=O)O)CCN(CC(=O)O)CC1)C(=O)N[C@@H](CCCCN)C(=O)N[C@H]1CSSC[C@@H](C(=O)N[C@@H](CO)C(=O)NCC(=O)O)NC(=O)[C@H](Cc2ccccc2)NC(=O)[C@H]([C@@H](C)O)NC(=O)[C@H](CCCCN)NC(=O)[C@@H](Cc2c[nH]c3ccccc23)NC(=O)[C@H](Cc2ccccc2)NC(=O)[C@H](Cc2ccccc2)NC1=O`, the IC50 in assay [1] is 33 nM; in assay [2], 16 nM; in assay [3], 4 nM; in assay [4], 11 nM; in assay [6], 50 nM. The result in assay [5] was Active.
With `C[C@H](NC(=O)CN1CCN(CC(=O)O)CCN(CC(=O)O)CCN(CC(=O)O)CC1)C(=O)NCC(=O)N[C@H]1CSSC[C@H](C(=O)O)NC(=O)[C@H](CO)NC(=O)[C@H]([C@@H](C)O)NC(=O)[C@H](Cc2ccccc2)NC(=O)[C@H]([C@@H](C)O)NC(=O)[C@H](CCCCN)NC(=O)[C@@H](Cc2c[nH]c3ccccc23)NC(=O)[C@H](Cc2ccccc2)NC(=O)[C@H](Cc2ccccc2)NC(=O)[C@H](CC(N)=O)NC(=O)[C@H](CCCNC(=N)N)NC1=O`, the half-maximal inhibitory concentration (IC50) was 38 nM in assay [1]; 16 nM in assay [2]; 2.8 nM in assay [3]; 1.6 nM in assay [4]; 25 nM in assay [6]. For the same molecule, the outcome in assay [5] was Active.

Values taken from ChEMBL document CHEMBL3120056 (Eur J Med Chem, 2014).
